Source: patent publication US20250171447A1, “ADENOSINE RECEPTOR ANTAGONISTS, PHARMACEUTICAL COMPOSITIONS AND THEIR USE THEREOF” (Merck Sharp & Dohme LLC, priority 2022, published 2025)
pIC50: −log10 of the molar value.

biological target: human A2A adenosine receptor (Homo sapiens (Human), UniProt P29274); assay: A2A receptor affinity binding assay (radioligand filtration binding or SPA, [3H]SCH58261); details: membranes from HEK293 or CHO cells expressing human A2A; Method (A) filtration or Method (B) SPA
Sequence (P29274 whole entry): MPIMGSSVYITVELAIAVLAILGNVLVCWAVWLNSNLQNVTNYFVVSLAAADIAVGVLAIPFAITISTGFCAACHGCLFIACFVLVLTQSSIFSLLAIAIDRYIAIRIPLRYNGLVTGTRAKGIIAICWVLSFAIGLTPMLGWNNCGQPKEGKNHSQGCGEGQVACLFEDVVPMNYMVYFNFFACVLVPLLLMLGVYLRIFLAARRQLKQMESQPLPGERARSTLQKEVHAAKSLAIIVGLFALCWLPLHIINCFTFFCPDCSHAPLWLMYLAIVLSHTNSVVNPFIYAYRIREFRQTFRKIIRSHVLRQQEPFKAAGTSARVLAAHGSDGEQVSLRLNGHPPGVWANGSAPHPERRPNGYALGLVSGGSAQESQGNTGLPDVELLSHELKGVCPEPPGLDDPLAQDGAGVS

Question: `COc1cccc2c1nc(N)n1nc([C@H]3C[C@H](c4cnc(N5CCN[C@H](C)C5)c(C)c4)C3)nc21` [Ex-102, 7-methoxy-2-(trans-3-{5-methyl-6-[(3R)-3-methylpiperazin-1-yl]pyridin-3-yl}cyclobutyl)[1,2,4]triazolo[1,5-c]quinazolin-5-amine] was tested. Which pIC50 did it give?
Answer: 8.82

Question: How did the pIC50 turn out when `COc1cccc2c1nc(N)n1nc([C@H]3C[C@@H](c4cc(C)c(C(C)(C)N)cn4)C3)nc21` [Ex-80, 2-{cis-3-[5-(2-aminopropan-2-yl)-4-methylpyridin-2-yl]cyclobutyl}-7-methoxy[1,2,4]triazolo[1,5-c]quinazolin-5-amine] was run?
Answer: 8.35

Question: How did the pIC50 turn out when `COc1cccc2c1nc(N)n1nc([C@H]3C[C@H](c4ccc([C@@H](N)C(F)F)cn4)C3)nc21` (single isomer, unassigned) [Ex-106] was run?
Answer: 8.39

Question: With `COc1cccc2c1nc(N)n1nc([C@H]3C[C@H](c4ccc(CN5CCNCC5)cc4)C3)nc21` [Ex-98, 7-methoxy-2-(trans-3-{4-[(piperazin-1-yl)methyl]phenyl}cyclobutyl)[1,2,4]triazolo[1,5-c]quinazolin-5-amine] as the compound, how does the pIC50 read?
Answer: 8.80

Question: `COc1cccc2c1nc(N)n1nc([C@H]3C[C@@H](c4ccc(N5CCN(C)CC5)nc4)C3)nc21` [Ex-115, 7-methoxy-2-{cis-3-[6-(4-methylpiperazin-1-yl)pyridin-3-yl]cyclobutyl}[1,2,4]triazolo[1,5-c]quinazolin-5-amine] was tested. Which pIC50 did it give?
Answer: 8.77

Question: `COc1cccc2c1nc(N)n1nc([C@H]3C[C@@H](c4ccc([C@@H](N)C(F)(F)F)nc4)C3)nc21` [Ex-95, 2-[(1s,3s)-3-{6-[(1R)-1-amino-2,2,2-trifluoroethyl]pyridin-3-yl}cyclobutyl]-7-methoxy[1,2,4]triazolo[1,5-c]quinazolin-5-amine] was tested. Which pIC50 did it give?
Answer: 8.54

Question: How did the pIC50 turn out when `COc1cccc2c1nc(N)n1nc([C@H]3C[C@@H](c4ccc(C(C)N)cn4)C3)nc21` (stereo partly drawn) [Ex-71, 2-{cis-3-[5-(1-aminoethyl)pyridin-2-yl]cyclobutyl}-7-methoxy[1,2,4]triazolo[1,5-c]quinazolin-5-amine] was run?
Answer: 7.74

Question: `COc1cccc2c1nc(N)n1nc([C@H]3C[C@@H](c4ccc([C@@]5(C(F)(F)F)CCCCN5)cc4)C3)nc21` [Ex-99, 7-methoxy-2-(cis-3-{4-[(2R)-2-(trifluoromethyl)piperidin-2-yl]phenyl}cyclobutyl)[1,2,4]triazolo[1,5-c]quinazolin-5-amine] was tested. Which pIC50 did it give?
Answer: 9.22

Question: How did the pIC50 turn out when `COc1cccc2c1nc(N)n1nc([C@H]3C[C@@H](c4ccc(C(C)(C)N)c(C)n4)C3)nc21` (single isomer, unassigned) [Ex-118, 2-{cis-3-[5-(2-aminopropan-2-yl)-6-methylpyridin-2-yl]cyclobutyl}-7-methoxy[1,2,4]triazolo[1,5-c]quinazolin-5-amine] was run?
Answer: 8.32

Question: With `COc1cccc2c1nc(N)n1nc([C@H]3C[C@H](c4ccc(C(C)(C)N)c(C)n4)C3)nc21` (single isomer, unassigned) [Ex-117, 2-{trans-3-[5-(2-aminopropan-2-yl)-6-methylpyridin-2-yl]cyclobutyl}-7-methoxy[1,2,4]triazolo[1,5-c]quinazolin-5-amine] as the compound, how does the pIC50 read?
Answer: 8.09

Question: `Cc1nc(C(C)(C)N)cnc1[C@H]1C[C@H](c2nc3c4cccc(F)c4nc(N)n3n2)C1` [Ex-133, 2-{trans-3-[5-(2-aminopropan-2-yl)-3-methylpyrazin-2-yl]cyclobutyl}-7-fluoro[1,2,4]triazolo[1,5-c]quinazolin-5-amine] was tested. Which pIC50 did it give?
Answer: 8.24

Question: With `COc1cccc2c1nc(N)n1nc([C@H]3C[C@H](c4ccc([C@@H](N)C(F)(F)F)cn4)C3)nc21` (single isomer, unassigned) [Ex-93] as the compound, how does the pIC50 read?
Answer: 8.64

Question: How did the pIC50 turn out when `COc1cccc2c1nc(N)n1nc([C@H]3C[C@@H](c4ccc([C@H](N)C(F)(F)F)cn4)C3)nc21` [Ex-78, 2-(cis-3-{5-[(1S)-1-amino-2,2,2-trifluoroethyl]pyridin-2-yl}cyclobutyl)-7-methoxy[1,2,4]triazolo[1,5-c]quinazolin-5-amine] was run?
Answer: 8.72

Question: `COc1cccc2c1nc(N)n1nc([C@H]3C[C@H](c4ncc5c(n4)CCNC5)C3)nc21` (single isomer, unassigned) [Ex-110, 7-methoxy-2-[(trans)-3-(5,6,7,8-tetrahydropyrido[4,3-d]pyrimidin-2-yl)cyclobutyl][1,2,4]triazolo[1,5-c]quinazolin-5-amine] was tested. Which pIC50 did it give?
Answer: 7.78

Question: `COc1cccc2c1nc(N)n1nc([C@H]3C[C@@H](c4ccc([C@@H](N)C(F)(F)F)cn4)C3)nc21` (single isomer, unassigned) [Ex-94] was tested. Which pIC50 did it give?
Answer: 8.42

Question: `COc1cccc2c1nc(N)n1nc(C3CC(c4ccc([C@@H](N)C(F)(F)F)nc4)C3)nc21` (stereo partly drawn) [Ex-96, 2-[(1r,3r)-3-{6-[(1R)-1-amino-2,2,2-trifluoroethyl]pyridin-3-yl}cyclobutyl]-7-methoxy[1,2,4]triazolo[1,5-c]quinazolin-5-amine] was tested. Which pIC50 did it give?
Answer: 7.85

Question: `COc1cccc2c1nc(N)n1nc([C@H]3C[C@@H](c4ccc(C(C)(N)C(F)F)nc4)C3)nc21` (stereo partly drawn) [Ex-91, 2-{(1s,3s)-3-[6-(2-amino-1,1-difluoropropan-2-yl)pyridin-3-yl]cyclobutyl}-7-methoxy[1,2,4]triazolo[1,5-c]quinazolin-5-amine] was tested. Which pIC50 did it give?
Answer: 8.96

Question: How did the pIC50 turn out when `COc1cccc2c1nc(N)n1nc([C@H]3C[C@H](c4cnc(C(C)(C)N)c(C)n4)C3)nc21` [Ex-121, 2-((1r,3r)-3-(5-(2-aminopropan-2-yl)-6-methylpyrazin-2-yl)cyclobutyl)-7-methoxy-[1,2,4]triazolo[1,5-c]quinazolin-5-amine] was run?
Answer: 8.43

Question: How did the pIC50 turn out when `COc1cccc2c1nc(N)n1nc([C@H]3C[C@@H](c4cnc(N5CCN[C@H](C)C5)c(C)c4)C3)nc21` [Ex-101, 7-methoxy-2-(cis-3-{5-methyl-6-[(3R)-3-methylpiperazin-1-yl]pyridin-3-yl}cyclobutyl)[1,2,4]triazolo[1,5-c]quinazolin-5-amine] was run?
Answer: 9.15

Question: `COc1cccc2c1nc(N)n1nc([C@H]3C[C@@H](c4cnc(CN)nc4)C3)nc21` [Ex-112, 2-{(cis)-3-[2-(aminomethyl)pyrimidin-5-yl]cyclobutyl}-7-methoxy[1,2,4]triazolo[1,5-c]quinazolin-5-amine] was tested. Which pIC50 did it give?
Answer: 8.38

Question: `COc1cccc2c1nc(N)n1nc([C@H]3C[C@@H](c4ncc5c(n4)CNC5)C3)nc21` (single isomer, unassigned) [Ex-109, 2-[(cis)-3-(6,7-dihydro-5H-pyrrolo[3,4-d]pyrimidin-2-yl)cyclobutyl]-7-methoxy[1,2,4]triazolo[1,5-c]quinazolin-5-amine] was tested. Which pIC50 did it give?
Answer: 7.06

Question: With `COc1cccc2c1nc(N)n1nc([C@H]3C[C@@H](c4ccc(C(C)(C)O)cc4)C3)nc21` [Ex-42, 2-(4-((1s,3s)-3-(5-amino-7-methoxy-[1,2,4]triazolo[1,5-c]quinazolin-2-yl)cyclobutyl)phenyl)propan-2-ol] as the compound, how does the pIC50 read?
Answer: 9.22

Question: `COc1cccc2c1nc(N)n1nc([C@H]3C[C@H](c4ccc(C(N)C(F)F)cn4)C3)nc21` (stereo partly drawn) [Ex-73, 2-{trans-3-[5-(1-amino-2,2-difluoroethyl)pyridin-2-yl]cyclobutyl}-7-methoxy[1,2,4]triazolo[1,5-c]quinazolin-5-amine] was tested. Which pIC50 did it give?
Answer: 8.32

Question: How did the pIC50 turn out when `COc1cccc2c1nc(N)n1nc([C@H]3C[C@@H](c4ncc5c(n4)CCNC5)C3)nc21` (single isomer, unassigned) [Ex-111, 7-methoxy-2-[(cis)-3-(5,6,7,8-tetrahydropyrido[4,3-d]pyrimidin-2-yl)cyclobutyl][1,2,4]triazolo[1,5-c]quinazolin-5-amine] was run?
Answer: 6.93

Question: How did the pIC50 turn out when `COc1cc(F)cc2c1nc(N)n1nc(C3CC3C(C)(C)O)nc21` (stereo not drawn) [Ex-28, 2-(2-(5-amino-9-fluoro-7-methoxy-[1,2,4]triazolo[1,5-c]quinazolin-2-yl)cyclopropyl)propan-2-ol] was run?
Answer: 8.82

Question: `COc1cccc2c1nc(N)n1nc([C@H]3C[C@@H](c4ccc(C(N)C(F)F)cn4)C3)nc21` (stereo partly drawn) [Ex-74, 2-{cis-3-[5-(1-amino-2,2-difluoroethyl)pyridin-2-yl]cyclobutyl}-7-methoxy[1,2,4]triazolo[1,5-c]quinazolin-5-amine] was tested. Which pIC50 did it give?
Answer: 8.40

Question: How did the pIC50 turn out when `COc1cccc2c1nc(N)n1nc([C@H]3C[C@H](c4ncc(C5(O)COC5)cc4C)C3)nc21` [Ex-120, 3-{6-[trans-3-(5-amino-7-methoxy[1,2,4]triazolo[1,5-c]quinazolin-2-yl)cyclobutyl]-5-methylpyridin-3-yl}oxetan-3-ol] was run?
Answer: 9.30

Question: With `COc1cccc2c1nc(N)n1nc([C@H]3C[C@@H](c4ncc(C(C)(C)N)cc4Cl)C3)nc21` (single isomer, unassigned) [Ex-88, 2-{cis-3-[5-(2-aminopropan-2-yl)-3-chloropyridin-2-yl]cyclobutyl}-7-methoxy[1,2,4]triazolo[1,5-c]quinazolin-5-amine] as the compound, how does the pIC50 read?
Answer: 8.18

Question: How did the pIC50 turn out when `COc1cccc2c1nc(N)n1nc([C@H]3C[C@@H](c4ncc(C(C)(C)N)nc4C)C3)nc21` [Ex-89, 2-((1s,3s)-3-(5-(2-aminopropan-2-yl)-3-methylpyrazin-2-yl)cyclobutyl)-7-methoxy-[1,2,4]triazolo[1,5-c]quinazolin-5-amine] was run?
Answer: 7.56

Question: `COc1cccc2c1nc(N)n1nc([C@H]3C[C@H](c4ncc(C(C)(C)N)nc4C4CC4)C3)nc21` [Ex-125, 2-((1r,3r)-3-(5-(2-aminopropan-2-yl)-3-cyclopropylpyrazin-2-yl)cyclobutyl)-7-methoxy-[1,2,4]triazolo[1,5-c]quinazolin-5-amine] was tested. Which pIC50 did it give?
Answer: 8.59

Question: `COc1cccc2c1nc(N)n1nc([C@H]3C[C@H](c4cc(C)c(C(C)(C)N)cn4)C3)nc21` [Ex-81, 2-{trans-3-[5-(2-aminopropan-2-yl)-4-methylpyridin-2-yl]cyclobutyl}-7-methoxy[1,2,4]triazolo[1,5-c]quinazolin-5-amine] was tested. Which pIC50 did it give?
Answer: 8.32

Question: With `COc1cccc2c1nc(N)n1nc([C@H]3C[C@H](c4ccc([C@H](N)C(F)F)cn4)C3)nc21` (single isomer, unassigned) [Ex-104] as the compound, how does the pIC50 read?
Answer: 8.59

Question: `COc1cccc2c1nc(N)n1nc([C@H]3C[C@@H](c4ccc(C(N)C(F)(F)F)cc4)C3)nc21` (single isomer, unassigned) [Ex-76, 2-{cis-3-[4-(1-amino-2,2,2-trifluoroethyl)phenyl]cyclobutyl}-7-methoxy[1,2,4]triazolo[1,5-c]quinazolin-5-amine] was tested. Which pIC50 did it give?
Answer: 9.30
